As a reminder, the IC50 is the concentration at which inhibition is half-maximal.

Experimental findings from patent publication US10023592B2, “Bromodomain inhibitors” (Celgene Quanticel Research, Inc., priority 2013, dated 2018) are described below.

For one assay, the target named is BRD4(BD1) (Homo sapiens (Human), UniProt O60885). Put plainly: In vitro enzyme inhibition assay (BRD4 AlphaScreen). The class given is binding. The essentials:
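His-tagged BRD4 tested by AlphaScreen for binding of biotinylated H4K5/8/12/16-tetraacetyl peptide. After 20 min at room temperature, streptavidin donor and nickel chelate acceptor beads added (5 μg/mL final each). IC50 determined.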
In general terms: Alpha assays give light when donor and acceptor beads are brought close together.

Assay [1] deals with Raji, human Burkitts lymphoma cells. The assay is described as follows: Cell-MTS proliferation assay, Raji. In kind it is cell-based. Conditions: Homo sapiens, 168 hr. Summed up:
(§1)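 Seeded for ~90% confluence at 7 days (Raji 15,000, HL-60 5,000, NCI-H460 3,000 cells/well); compound added 24 h post-plating as 11-point dilution, 100 μM to 2.0 nM final.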

For assay [2], the system named is NCI-H460, human non-small cell lung cancer cells. The assay is described as follows: Cell-MTS proliferation assay, NCI-H460. The class given is cell-based. Conditions: Homo sapiens, 168 hr. The essentials: as §1
The subject of assay [3] is HL-60, human proleukemia cells. The assay is described as follows: Cell-MTS proliferation assay, HL-60. In kind it is cell-based. Conditions: Homo sapiens, 168 hr. The essentials:
as §1

[4] abbreviates: Raji, Cell-MTS, class symbols A/B/C.
[5] abbreviates: NCI-H460, Cell-MTS, class symbols A/B/C.
Setting [6] is: HL-60, Cell-MTS, class symbols A/B/C.
The mark [7] stands for this setting: in vitro enzyme inhibition assay.
[8] abbreviates: Cell-MTS proliferation, Raji cells.
[9] abbreviates: Cell-MTS proliferation, NCI-H460 cells.
Where [10] appears, read: Cell-MTS proliferation, HL-60 cells.
[11] abbreviates: NCI-H460, Cell-MTS proliferation.

As to `CCS(=O)(=O)Nc1ccc(Cl)c(-c2cn(C)c(=O)c3ccc(-c4cnn(C)c4)cc23)c1` [Example 45, N-[4-chloro-3-[2-methyl-6-(1-methylpyrazol-4-yl)-1-oxoisoquinolin-4-yl]phenyl]ethanesulfonamide], the IC50 was less than 0.5 µM on BRD4(BD1) (class symbols A/B/C), less than 0.5 µM in assay [1] (setting [4]), 0.5 to 5 µM in assay [2] (setting [5]) and less than 0.5 µM in assay [3] (setting [6]).
In the case of `CCS(=O)(=O)c1ccc(NC2CCCC2)c(-c2cc(C)c(=O)n(C)c2)c1` [Example 416, 5-[2-(cyclopentylamino)-5-ethylsulfonylphenyl]-1,3-dimethylpyridin-2-one], the IC50 at BRD4(BD1) (setting [7]) is less than 0.5 µM; in assay [1] (setting [8]), less than 0.5 µM; in assay [2] (setting [9]), more than 5 µM; in assay [3] (setting [10]), less than 0.5 µM.
On to `CCS(=O)(=O)Nc1ccc(Oc2ccc(F)cc2F)c(-c2cn(C)c(=O)c3ccoc23)c1` [Example 379, N-[4-(2,4-difluorophenoxy)-3-(5-methyl-4-oxofuro[3,2-c]pyridin-7-yl)phenyl] ethanesulfonamide], for which the 50% inhibitory concentration (IC50) was less than 0.5 µM on BRD4(BD1) (setting [7]), less than 0.5 µM in assay [1] (setting [8]), more than 5 µM in assay [2] (setting [9]) and less than 0.5 µM in assay [3] (setting [10]).
Take `COc1ccc(-c2cn(C)c(=O)c3cc(F)ccc23)cc1S(=O)(=O)NCc1ccccc1` [Example 60, N-benzyl-5-(7-fluoro-2-methyl-1-oxoisoquinolin-4-yl)-2-methoxybenzenesulfonamide]: the IC50 against BRD4(BD1) (class symbols A/B/C) is 0.5 to 5 µM; in assay [1] (setting [4]), less than 0.5 µM; in assay [2] (setting [5]) it was more than 5 µM; in assay [3] (setting [6]), 0.5 to 5 µM.
`Cn1cc(-c2cc(S(C)(=O)=O)ccc2O[C@H]2CC[C@H](O)CC2)c2ccc(F)cc2c1=O` [Example 187, 7-fluoro-4-[2-(trans-4-hydroxycyclohexyl)oxy-5-methylsulfonylphenyl]-2-methylisoquinolin-1-one]: the IC50 was less than 0.5 µM on BRD4(BD1) (setting [7]); less than 0.5 µM in assay [1] (Raji, Cell-MTS proliferation); more than 5 µM in assay [2] (setting [11]); less than 0.5 µM in assay [3] (HL-60, Cell-MTS proliferation).
As to `CCS(=O)(=O)Nc1ccc(Oc2ccc(F)cc2F)c(-c2cc(N(C)C)c(=O)n(C)c2)c1` [Example 464, N-[4-(2,4-difluorophenoxy)-3-[5-(dimethylamino)-1-methyl-6-oxopyridin-3-yl]phenyl]ethanesulfonamide], the IC50 at BRD4(BD1) (setting [7]) was less than 0.5 µM; in assay [1] (setting [8]), less than 0.5 µM; in assay [2] (setting [9]), more than 5 µM; in assay [3] (setting [10]), less than 0.5 µM.
As for `Cn1cc(-c2cc(NS(C)(=O)=O)c(F)cc2OCC2CC2)c2c(c1=O)CCCC2` [Example 218, N-[4-(cyclopropylmethoxy)-2-fluoro-5-(2-methyl-1-oxo-5,6,7,8-tetrahydroisoquinolin-4-yl)phenyl]methanesulfonamide], the IC50 at BRD4(BD1) (setting [7]) is less than 0.5 µM; in assay [1] (Raji, Cell-MTS proliferation), 0.5 to 5 µM; in assay [2] (setting [11]) it was more than 5 µM; in assay [3] (HL-60, Cell-MTS proliferation), less than 0.5 µM.
As for `CCS(=O)(=O)Nc1ncc(Oc2ccc(F)cc2F)c(-c2cn(C)c(=O)c3occc23)n1` [Example 263, N-[5-(2,4-difluorophenoxy)-4-(6-methyl-7-oxofuro[2,3-c]pyridin-4-yl)pyrimidin-2-yl]ethanesulfonamide], the IC50 at BRD4(BD1) (setting [7]) is less than 0.5 µM; in assay [1] (Raji, Cell-MTS proliferation), less than 0.5 µM; in assay [2] (setting [11]), more than 5 µM; in assay [3] (HL-60, Cell-MTS proliferation), less than 0.5 µM.
Turning to `CCS(=O)(=O)Nc1ccc(Oc2ccc(F)cc2F)c(-c2cn(C)c(=O)c3cnccc23)c1` [Example 57, N-[4-(2,4-difluorophenoxy)-3-(2-methyl-1-oxo-2,7-naphthyridin-4-yl)phenyl]ethanesulfonamide], the IC50 was less than 0.5 µM on BRD4(BD1) (class symbols A/B/C), less than 0.5 µM in assay [1] (setting [4]), more than 5 µM in assay [2] (setting [5]) and less than 0.5 µM in assay [3] (setting [6]).
In the case of `Cn1cc(-c2cc(CS(C)(=O)=O)ccc2Oc2ccc(F)cc2F)cc(F)c1=O` [Example 437, 5-[2-(2,4-difluorophenoxy)-5-(methylsulfonylmethyl)phenyl]-3-fluoro-1-methylpyridin-2-one], the IC50 at BRD4(BD1) (setting [7]) was less than 0.5 µM; in assay [1] (setting [8]) it was less than 0.5 µM; in assay [2] (setting [9]) it was more than 5 µM; in assay [3] (setting [10]), less than 0.5 µM.
Consider `Cc1cc(-c2cc(S(C)(=O)=O)ccc2OCC2CCC2)cn(C)c1=O` [Example 459, 5-[2-(cyclobutylmethoxy)-5-methylsulfonylphenyl]-1,3-dimethylpyridin-2-one], for which the IC50 against BRD4(BD1) (setting [7]) was less than 0.5 µM; in assay [1] (setting [8]), less than 0.5 µM; in assay [2] (setting [9]), more than 5 µM; in assay [3] (setting [10]) it was less than 0.5 µM.
`CCS(=O)(=O)Nc1ccc(OCC2CC2)c(-c2cn(C)c(=O)c3occc23)c1` [Example 255, N-[4-(cyclopropylmethoxy)-3-(6-methyl-7-oxofuro[2,3-c]pyridine-4-yl)phenyl]ethanesulfonamide]: the IC50 against BRD4(BD1) (setting [7]) is less than 0.5 µM; in assay [1] (Raji, Cell-MTS proliferation) it was less than 0.5 µM; in assay [2] (setting [11]), more than 5 µM; in assay [3] (HL-60, Cell-MTS proliferation), less than 0.5 µM.
For the compound `Cc1cccc(C)c1COc1cc(-c2cc(C)c(=O)n(C)c2)cc(S(C)(=O)=O)c1` [Example 331, 5-[3-[(2,6-dimethylphenyl)methoxy]-5-methylsulfonylphenyl]-1,3-dimethylpyridin-2-one], the IC50 against BRD4(BD1) (setting [7]) was less than 0.5 µM; in assay [1] (Raji, Cell-MTS proliferation) it was 0.5 to 5 µM; in assay [2] (setting [11]), more than 5 µM; in assay [3] (HL-60, Cell-MTS proliferation) it was less than 0.5 µM.
On to `CCS(=O)(=O)c1ccc(OCC2CC2)c(-c2cn(C)c(=O)c3ccccc23)n1` [Example 206, 4-[3-(cyclopropylmethoxy)-6-ethylsulfonylpyridin-2-yl]-2-methylisoquinolin-1-one], for which the IC50 at BRD4(BD1) (setting [7]) is less than 0.5 µM; in assay [1] (Raji, Cell-MTS proliferation), less than 0.5 µM; in assay [2] (setting [11]), more than 5 µM; in assay [3] (HL-60, Cell-MTS proliferation), less than 0.5 µM.
For `C#Cc1cc(-c2cc(NS(=O)(=O)CC)ccc2Oc2ccc(F)cc2F)cn(C)c1=O` [Example 283, N-[4-(2,4-difluorophenoxy)-3-(5-ethynyl-1-methyl-6-oxopyridin-3-yl)phenyl]ethanesulfonamide], the IC50 against BRD4(BD1) (setting [7]) is less than 0.5 µM; in assay [1] (Raji, Cell-MTS proliferation), 0.5 to 5 µM; in assay [2] (setting [11]) it was more than 5 µM; in assay [3] (HL-60, Cell-MTS proliferation), less than 0.5 µM.
As to `Cn1cc(-c2nc(NS(C)(=O)=O)ncc2OCC2CC2)c2cc(F)ccc2c1=O` [Example 159, N-[5-(cyclopropylmethoxy)-4-(6-fluoro-2-methyl-1-oxoisoquinolin-4-yl)pyrimidin-2-yl]methanesulfonamide], the IC50 was less than 0.5 µM at BRD4(BD1) (setting [7]); less than 0.5 µM in assay [1] (Raji, Cell-MTS proliferation); more than 5 µM in assay [2] (setting [11]); less than 0.5 µM in assay [3] (HL-60, Cell-MTS proliferation).
Consider `Cc1cc(-c2cc(OCc3ccccc3)cc(S(C)(=O)=O)c2)cn(C)c1=O` [Example 324, 1,3-dimethyl-5-(3-methylsulfonyl-5-phenylmethoxyphenyl)pyridin-2-one], for which the half-inhibitory concentration (IC50) on BRD4(BD1) (setting [7]) was less than 0.5 µM; in assay [1] (Raji, Cell-MTS proliferation), 0.5 to 5 µM; in assay [2] (setting [11]), more than 5 µM; in assay [3] (HL-60, Cell-MTS proliferation), less than 0.5 µM.
For `Cn1cc(-c2cc(S(C)(=O)=O)ccc2NC2CCOCC2)c2ccccc2c1=O` [Example 191, 2-methyl-4-[5-methylsulfonyl-2-(oxan-4-ylamino)phenyl]isoquinolin-1-one], the IC50 against BRD4(BD1) (setting [7]) is less than 0.5 µM; in assay [1] (Raji, Cell-MTS proliferation) it was less than 0.5 µM; in assay [2] (setting [11]) it was more than 5 µM; in assay [3] (HL-60, Cell-MTS proliferation), less than 0.5 µM.
In the case of `Cn1cc(-c2cc(S(C)(=O)=O)ccc2NC2CCOC2)c2ccccc2c1=O` (stereo not shown) [Example 190, 2-methyl-4-[5-methylsulfonyl-2-(oxolan-3-ylamino)phenyl]isoquinolin-1-one], the IC50 was less than 0.5 µM against BRD4(BD1) (setting [7]); 0.5 to 5 µM in assay [1] (Raji, Cell-MTS proliferation); more than 5 µM in assay [2] (setting [11]); 0.5 to 5 µM in assay [3] (HL-60, Cell-MTS proliferation).
